Consider 20 compounds from patent US8563597B2, “Fused tricyclic ether carbamates and their use” (priority 2010, dated 2013).

Each structure is given as a SMILES string.

In assay [1] the target is HIV-1 protease (Human immunodeficiency virus type 1 group M subtype B, UniProt P04585). The assay can be described thus: Enzymatic inhibitory activity (Ki) against HIV-1 protease. It is filed as biochemical.
In assay [2] the test system is HIV-1LAI. The assay can be described thus: Antiviral activity against HIV-1LAI. Type of assay: cell-based. The following applies: Human immunodeficiency virus 1.
In assay [3] the test system is HIV-1MDR/JSL (R5). The assay is described as follows: Antiviral activity against multi-drug resistant clinical isolates in PHA-PBMs (p24 Gag production). Type of assay: cell-based. The source says:
(§1) Relative Antiviral activity of 33, and 34 against multi-drug resistant clinical isolates in PHA-PBMs

Assay [4] has as its system HIV-1MDR/MM (R5). The description is as above. It is filed as cell-based.
Source text: as §1

Assay [5] concerns HIV-1MDR/TM (X4). Described as above. It is filed as cell-based.
Source text: as §1

In assay [6] the test system is HIV-1MDR/G (X4). The assay is described as above. It is filed as cell-based.
Source text: as §1

The test system of assay [7] is HIV-1MDR/C (X4). The assay is described as above. It is filed as cell-based.
Source text: as §1

Assay [8] has as its system HIV-1MDR/B (X4). Described as above. Type of assay: cell-based.
Source text: as §1

The test system of assay [9] is HIV-1ERS104pre (wild-type: X4). The assay can be described thus: Antiviral activity against clinical isolates in PHA-PBMs (p24 Gag production). It is filed as cell-based.
Source text: as §1

Assay [10] concerns highly PI-resistant clinical HIV-1 variants. The following applies: in vitro; result in words. As for the experimental part:
In another embodiment, novel oxatricyclic [3(R), 3aS, 4aS, 7aR, 8aS] and [3(R), 3aS, 4aR, 7aS, 8aS]-ligands were designed, synthesized, and incorporated into the (R)-hydroxyethyl sulfonamide isostere. […] The antiviral activity of 33 against a panel of highly PI-resistant clinical HIV-1 variants in vitro was measured.

`CC(C)CN(C[C@@H](O)[C@H](Cc1ccccc1)NC(=O)O[C@H]1CO[C@H]2O[C@@H]3CCO[C@@H]3[C@H]21)S(=O)(=O)c1ccc(N)cc1` had an inhibition constant Ki in [1] below 0.1 nM.

With `COc1ccc(S(=O)(=O)N(CC(C)C)C[C@@H](O)[C@H](Cc2ccccc2)NC(=O)OC2CCCC3OC4OCCCC4C23)cc1` (stereo partly shown), the Ki in assay [1] was below 1 nM.

In the case of `COc1ccc(S(=O)(=O)N(CC(C)C)C[C@@H](O)[C@H](Cc2ccccc2)NC(=O)O[C@H]2CO[C@H]3C[C@@H]4OCC[C@@H]4[C@H]32)cc1` [Inhibitor 36], the 50% inhibitory concentration (IC50) in assay [2] is above 1000 nM. In addition, in assay [1], the inhibition constant Ki was below 10 nM.

`COc1ccc(S(=O)(=O)N(CC(C)C)C[C@@H](O)[C@H](Cc2ccccc2)NC(=O)O[C@@H]2CO[C@@H]3O[C@@H]4OCC[C@@H]4[C@@H]32)cc1` [Inhibitor 32] gave an IC50 in [2] below 10 nM.

For the compound `CC(C)CN(C[C@@H](O)[C@H](Cc1ccccc1)NC(=O)O[C@H]1CO[C@H]2O[C@@H]3COC[C@@H]3[C@H]21)S(=O)(=O)c1ccc(N)cc1`, the Ki in [1] was below 0.1 nM.

In the case of `COc1ccc(S(=O)(=O)N(CC(C)C)C[C@@H](O)[C@H](Cc2ccccc2)NC(=O)O[C@@H]2CO[C@@H]3O[C@H]4OCC[C@H]4[C@@H]32)cc1` [Inhibitor 34], in assay [2], the 50% inhibitory concentration (IC50) is below 1000 nM. The compound also yielded a Ki in [1] below 10 nM. For the same compound, the “fold changes of IC50 values compared to wild-type HIV-1ERS104pre” value (from here on “fold changes of IC50 values”) in assay [3] is recorded as above 2 fold; in assay [4], 2 fold; in assay [5], 2 fold; in [6] it was 2 fold; in assay [7], 1 fold; in [8], 2 fold. Moreover, in assay [9], the “fold changes of IC50 values” value was 1 fold.

With `CC(C)CN(C[C@@H](O)[C@H](Cc1ccccc1)NC(=O)O[C@@H]1C[C@@H]2[C@H]3COC[C@H]3O[C@@H]2C1)S(=O)(=O)c1ccc(N)cc1`, the inhibitory constant (Ki) in assay [1] is below 0.1 nM.

Regarding `COc1ccc(S(=O)(=O)N(CC(C)C)C[C@@H](O)[C@H](Cc2ccccc2)NC(=O)O[C@H]2CCCC3O[C@H]4OCC[C@H]4C32)cc1` (stereo partly shown), the 50% inhibitory concentration (IC50) in [2] is below 10 nM. The compound further returned a Ki in assay [1] below 0.1 nM.

Compound `COc1ccc(S(=O)(=O)N(CC(C)C)C[C@@H](O)[C@H](Cc2ccccc2)NC(=O)O[C@H]2CO[C@H]3C[C@H]4OCC[C@H]4[C@H]32)cc1` [Inhibitor 35] yielded a half-inhibitory concentration (IC50) in [2] below 1000 nM. The compound also displayed a Ki in [1] below 10 nM.

`COc1ccc(S(=O)(=O)N(CC(C)C)C[C@@H](O)[C@H](Cc2ccccc2)NC(=O)O[C@H]2CO[C@H]3O[C@@H]4OCC[C@@H]4[C@H]32)cc1` [Inhibitor 33]: the half-maximal inhibitory concentration (IC50) in assay [2] was below 10 nM. Also, the “antiviral activity against a panel of highly PI-resistant clinical HIV-1 variants” value in assay [10] is “effectively suppressed all tested clinical HIV-1 variants”. In assay [1], the Ki is below 0.1 nM. Further, the “fold changes of IC50 values” value in assay [3] was determined as 5 fold; in assay [4], 5 fold; in assay [5], 4 fold; in assay [6] it was 5 fold; in [7] it was 2 fold; in assay [8], 7 fold. For the same compound, the “fold changes of IC50 values” value in [9] turned out to be 1 fold.

In turn, `COc1ccc(S(=O)(=O)N(CC(C)C)C[C@@H](O)[C@H](Cc2ccccc2)NC(=O)O[C@H]2CO[C@H]3O[C@H]4OCC[C@H]4[C@H]32)cc1` [Inhibitor 31] had an IC50 in assay [2] below 1000 nM.

Consider `COc1ccc(S(=O)(=O)N(CC(C)C)C[C@@H](O)[C@H](Cc2ccccc2)NC(=O)O[C@@H]2C[C@@H]3OC4OCCCC4[C@@H]3C2)cc1` (stereo partly shown), for which the Ki in assay [1] was below 0.1 nM.

Compound `CC(C)CN(C[C@@H](O)[C@H](Cc1ccccc1)NC(=O)O[C@@H]1C[C@@H]2[C@H]3OCC[C@H]3O[C@@H]2C1)S(=O)(=O)c1ccc(N)cc1` gave a Ki in [1] above 10 nM.

Compound `COc1ccc(S(=O)(=O)N(CC(C)C)C[C@@H](O)[C@H](Cc2ccccc2)NC(=O)OC2CS(=O)(=O)CC3OC4OCCC4C23)cc1` (stereo partly shown) showed an inhibition constant Ki in [1] below 1 nM.

`COc1ccc(S(=O)(=O)N(CC(C)C)C[C@@H](O)[C@H](Cc2ccccc2)NC(=O)O[C@H]2CO[C@H]3O[C@@H]4COC[C@@H]4[C@H]32)cc1` returned a Ki in assay [1] below 0.1 nM.

On to `COc1ccc(S(=O)(=O)N(CC(C)C)C[C@@H](O)[C@H](Cc2ccccc2)NC(=O)OC2CS(=O)(=O)CC3OC4OCCCC4C23)cc1` (stereo partly shown), for which the Ki in assay [1] is above 10 nM.

For the compound `CC(C)CN(C[C@@H](O)[C@H](Cc1ccccc1)NC(=O)O[C@H]1CCOC1)S(=O)(=O)c1ccc(N)cc1` [APV, Amprenavir, reference compound], the “fold changes of IC50 values” value in [3] stood at 13 fold; in assay [4], 9 fold; in assay [5] it was 15 fold; in [6], 15 fold; in assay [7], 11 fold; in assay [8], 16 fold. The “fold changes of IC50 values” value in assay [9] is on record as 1 fold.

The compound `CC(C)CN(C[C@@H](O)[C@H](Cc1ccccc1)NC(=O)O[C@H]1CO[C@H]2O[C@@H]3OCC[C@@H]3[C@H]21)S(=O)(=O)c1ccc(N)cc1` returned a Ki in assay [1] below 0.1 nM.

`COc1ccc(S(=O)(=O)N(CC(C)C)C[C@@H](O)[C@H](Cc2ccccc2)NC(=O)O[C@H]2CO[C@H]3O[C@@H]4CCO[C@@H]4[C@H]32)cc1` gave a Ki in [1] below 0.1 nM.

`CC(C)CN(C[C@@H](O)[C@H](Cc1ccccc1)NC(=O)O[C@H]1CO[C@H]2OCC[C@H]21)S(=O)(=O)c1ccc(N)cc1` [DRV, Darunavir, reference compound]: the “fold changes of IC50 values” value was found to be 5 fold in assay [3]; 3 fold in assay [4]; 6 fold in assay [5]; 6 fold in assay [6]; 2 fold in assay [7]; 6 fold in assay [8]. The “fold changes of IC50 values” value in assay [9] is listed as 1 fold.
